# From patent US20260256724A1, “T[…] FOR […]” (Asklepion Pharmaceuticals LLC, priority 2022, published 2026)
# “Also recorded” adds a separate entry of the source.
# Assays:
# [1] = test system: pediatric patients exposed to cardiopulmonary bypass in congenital heart defect surgery; experiment: Phase 3 double-blind, placebo-controlled trial of citrulline in cardiopulmonary bypass surgery, re-analysed by percent of intraoperative Dose 2 received; type: in vivo
# Description: A Phase 3 study was carried out as a double-blind, placebo-controlled trial to confirm the effect. The Phase 3 trial was performed in the US, EU, and Israel, using a modified intent-to-treat population (or modified full analysis set) of 190 patients, of whom 138 were in the US and 52 were ex-US.
# The starting point for the analysis was consideration of the complete modified full analysis set, consisting of all enrolled patients who completed the protocol. […] The Modified Full Analysis Set consists of all enrolled patients who completed the protocol.
# In the study protocol and accompanying pharmacy manual for both studies, citrulline dosing occurs in four distinct phases. Dose 1 is a loading dose added to the cardiopulmonary […] bypass fluids on a mg/kg basis. Dose 3 is a bolus administered following surgery on a mg/kg basis, and Dose 4 is an IV drip at 9 mg/kg/hour. No variation in administration of these doses was introduced during the course of the phase 3 study.
# In contrast, Dose 2, the intraoperative dosing designed to compensate for ultrafiltration, was subject to some variation. Ultrafiltration during cardiac surgery is not standardized, and therefore, it was not possible to completely standardize this dose. The perfusionist estimates the volume of ultrafiltrate removed, as well as the volume of cardioplegia solution. The perfusionist then calculates according to the study pharmacy manual instructions the amount of citrulline to be administered to compensate for the ultrafiltered citrulline in order to maintain a specified therapeutic level.
# Although the therapeutic target level was set at 100 micromolar during the phase 2 study, because of the potential for variation in Dose 2 (which is given intraoperatively to compensate for the routine ongoing ultrafiltration of circulating bypass fluids to reduce the circulating concentrations of inflammatory mediators) and the concern that some patients might inadvertently receive sub-therapeutic intraoperative levels, the target level for Dose 2 in the phase 3 study was increased to 200 micromolar. This was considered to be safe since no adverse effects of citrulline had been reported, even at substantially higher levels in medical use. In order to examine whether variation in Dose 2 could explain the results obtained, the actual dose received, shown as the percent of the targeted dose, was plotted against the composite variable results. Since placebos received no citrulline, they were plotted at the 0% level.
# For the Phase 3 trial, a target intraoperative dose of […] (Dose 2) was chosen to preclude an inadvertent drop below an efficacious level in any patient. The potential for variation in intraoperative dosing arises from the lack of standardization of cardiopulmonary bypass ultrafiltration techniques. […] Nonetheless, expansion of the study to a greater number of sites raised the concern that some sites might inadvertently underdose Dose 2. Given the known innocuous nature of L-citrulline, an endogenous amino acid that is given medicinally in doses an order of magnitude higher than this to urea cycle disorder patients, as well as the well-tolerated high endogenous concentrations of citrulline in hypercitrullinemia patients, there was no concern for erring on the high side of the presumed effective dose.
# To investigate the data in more detail, patients were stratified according to the dose level actually administered intraoperatively. The values obtained for duration of mechanical ventilation (MV), length of inotrope therapy (InoTx) and the composite primary (created for the SAP, based on the longer of the MV or InoTx) in any patient were segmented into groups based on the percent of the 200 μmol target dose actually received by the patient, by comparing patients who had received <65%, <75%, <85%, <95%, and >95% of the calculated target dose. […] Analysis was performed via two-sided Wilcoxon Rank Sum. […]
# nitric oxide production = experiment: Nitric oxide production in a murine system, measured via NO metabolites; conditions: increasing citrulline concentration
# Text: It is important to recall that citrulline is regenerated in the last step of NO production, making negative feedback by citrulline a reasonable hypothesis. Alternatively, an acute increase in NO production, which is known to have a negative feedback effect on NOS (Viziri and Wang, 1999) could explain the results. […] The negative clinical effects in the >95% group for the Phase 3 trial may thus result from one or more negative feedback mechanisms. The negative feedback could result from either the effect of NO or the citrulline itself creating feedback on the system.
# [2] = test system: pediatric patients undergoing surgical procedures involving cardiopulmonary bypass; conditions: 22 patients (11 Tx, 11 PL); Dose 2 100 μmol; cited from earlier work
smiles,measurement,setting,value
"NC(=O)NCCC[C@H](N)C(=O)O [citrulline, L-citrulline]","Composite (longer of MV or InoTx), median","[1]; <65% of target Dose 2, p = 0.0040",1267.0 min
same,"PICU/NICU stay, median","[1]; <65% of target Dose 2, p = 0.0236",2 days
same,"Hospitalization, median","[1]; <65% of target Dose 2, p = 0.0953",4 days
same,Reduction of median Composite vs placebo,[1]; <75% of target Dose 2,42%
same,Reduction of median Inotrope vs placebo,[1]; <75% of target Dose 2,26%
same,Reduction of median Mechanical Ventilation vs placebo,[1]; <75% of target Dose 2,70%
same,"Composite (longer of MV or InoTx), median","[1]; <75% of target Dose 2, p = 0.0025",1267.0 min
same,"Vent (duration of mechanical ventilation), median","[1]; <75% of target Dose 2, p = 0.0129",170.0 min
same,"PICU/NICU stay, median","[1]; <75% of target Dose 2, p = 0.0295",2 days
same,"Hospitalization, median","[1]; <75% of target Dose 2, p = 0.1905",5 days
same,overall length of hospital stay vs placebo,[1]; <75% of the calculated Dose 2,not significantly different
same,"Composite (longer of MV or InoTx), median","[1]; <85% of target Dose 2, p = 0.0029",1283.5 min
same,"PICU/NICU stay, median","[1]; <85% of target Dose 2, p = 0.0332",2 days
same,"Hospitalization, median","[1]; <85% of target Dose 2, p = 0.1369",5 days
same,"Composite (longer of MV or InoTx), median","[1]; <95% of target Dose 2, p = 0.0033",1357.0 min
same,"Inotrope (duration of inotrope therapy), median","[1]; <95% of target Dose 2, p = 0.0242",1300.0 min
same,"PICU/NICU stay, median","[1]; <95% of target Dose 2, p = 0.1232",2 days
same,"Hospitalization, median","[1]; <95% of target Dose 2, p = 0.3169",5 days
same,"Hospitalization, median","[1]; >95% of target Dose 2, p = 0.0006",7 days
same,"PICU/NICU stay, median","[1]; >95% of target Dose 2, p = 0.0034",4 days
same,"Composite (longer of MV or InoTx), median","[1]; >95% of target Dose 2, p = 0.0114",3447.0 min
same,"composite variable, duration of mechanical ventilation and duration of inotrope therapy vs placebo",[1]; >95% of the targeted dose (>190 μmol),worse results when treated with citrulline than placebo patients
same,"Composite (longer of MV or InoTx), median","[1]; All Patients, p = 0.3398 vs placebo (placebo median 2204.0)",1640.0 min
same,"Hospitalization, median","[1]; All Patients, p = 0.3681 vs placebo (placebo median 5)",5 days
same,"PICU/NICU stay, median","[1]; All Patients, p = 0.8484 vs placebo (placebo median 3)",3 days
same,reduction in the length of stay in the PICU or NICU following surgery,[1]; Dose 2 at levels <95% of target,statistically significant reduction of one day
same,"composite variable, duration of mechanical ventilation and duration of inotrope therapy vs placebo","[1]; Dose 2 at levels <95% of target, two-sided Wilcoxon Rank Sum",Statistically significant reduction of all variables; also recorded: highly significant reductions
same,"composite endpoint, treated vs placebo",[1]; complete modified full analysis set,showed no difference
same,production of NO as measured via NO metabolites,nitric oxide production,"increasing levels of citrulline initially facilitate nitric oxide production; however, continued increase in citrulline concentration results in diminished production of NO"
same,primary parameters (duration of MV & InoTx) vs placebo,[2],near-significance
